From patent US20130072430A1, “METHODS FOR TREATMENT OR PROPHYLAXIS OF KIDNEY OR LIVER DYSFUNCTION” (NPS PHARMACEUTICALS, INC., priority 2010, published 2013)

System: Human patients with short bowel syndrome
Assay: Example 1: kidney diagnostic biomarkers (urea nitrogen, creatinine, GFR) in short bowel syndrome patients, every four weeks for 24 weeks
Assay type: in vivo
Set-up: CREATININE (RATE BLANKED) Change from Baseline, Median / GFR, Median / GFR Change from Baseline, Median / UREA NITROGEN, Median / UREA NITROGEN Change from Baseline, Median: unit not given here
Conditions: for CREATININE (RATE BLANKED), Median: unit assumed
Description: Human patients with short bowel syndrome were divided into three groups: a control group (16 total individuals) to receive placebo, an experimental group (35 total individuals) to receive teduglutide at 0.05 mg/kg/day throughout the study, and an experimental group (32 total individuals) to receive teduglutide at 0.1 mg/kg/day throughout the study. Patients were treated by subcutaneous injection of placebo or the appropriate dose of teduglutide. As individuals with short bowel syndrome are likely to experience associated liver and kidney disease, known biomarkers of liver and kidney function were monitored every four weeks, for 24 weeks. The liver biomarkers tested included total bilirubin, ALT and AST and ALP. The kidney biomarkers tested included urea nitrogen, creatinine and GFR. Before administration of placebo or teduglutide, diagnostic biomarker levels were tested to establish a baseline for each individual.
To visualize the effect of GLP-2 on the levels of the diagnostic biomarkers, the average change from baseline was calculated for the placebo and teduglutide treated groups for each visit after a baseline was established. The average change from baseline of each group is depicted in FIGS. […]. The numerical figures for each diaanostic biomarker at each time point are depicted in Table 1.
The raw data for this sorting is reproduced in Table 2 below.

CC[C@H](C)[C@H](NC(=O)[C@H](Cc1ccccc1)NC(=O)[C@H](CC(=O)O)NC(=O)[C@H](CCCNC(=N)N)NC(=O)[C@H](C)NC(=O)[C@H](C)NC(=O)[C@H](CC(C)C)NC(=O)[C@H](CC(N)=O)NC(=O)[C@H](CC(=O)O)NC(=O)[C@H](CC(C)C)NC(=O)[C@@H](NC(=O)[C@@H](NC(=O)[C@H](CC(N)=O)NC(=O)[C@H](CCSC)NC(=O)[C@H](CCC(=O)O)NC(=O)[C@H](CC(=O)O)NC(=O)[C@H](CO)NC(=O)[C@H](Cc1ccccc1)NC(=O)[C@H](CO)NC(=O)CNC(=O)[C@H](CC(=O)O)NC(=O)CNC(=O)[C@@H](N)Cc1c[nH]cn1)[C@@H](C)O)[C@@H](C)CC)C(=O)N[C@@H](CC(N)=O)C(=O)N[C@@H](Cc1c[nH]c2ccccc12)C(=O)N[C@@H](CC(C)C)C(=O)N[C@H](C(=O)N[C@@H](CCC(N)=O)C(=O)N[C@H](C(=O)N[C@@H](CCCCN)C(=O)N[C@H](C(=O)N[C@H](C(=O)N[C@@H](CC(=O)O)C(=O)O)[C@@H](C)O)[C@@H](C)CC)[C@@H](C)O)[C@@H](C)CC [teduglutide]
GFR Change from Baseline, Mean (SD) (0.05 mg/kg/day, DW24): 3.7 (12.81)
GFR Change from Baseline, Median (0.05 mg/kg/day, DW24): 1.7
GFR, Mean (SD) (0.05 mg/kg/day, DW24): 89.7 (41.28)
GFR, Median (0.05 mg/kg/day, DW24): 78.1
UREA NITROGEN Change from Baseline, Mean (SD) (0.05 mg/kg/day, DW24): −0.6 (2.02)
UREA NITROGEN Change from Baseline, Median (0.05 mg/kg/day, DW24): −0.7
UREA NITROGEN, Mean (SD) (0.05 mg/kg/day, DW24): 5.0 (1.88)
UREA NITROGEN, Median (0.05 mg/kg/day, DW24): 4.9
CREATININE (RATE BLANKED), Median (0.05 mg/kg/day, DW24): 80 µmol/L
CREATININE (RATE BLANKED) Change from Baseline, Mean (SD) (0.10 mg/kg/day, DW4): −1.8 (10.49)
CREATININE (RATE BLANKED) Change from Baseline, Median (0.10 mg/kg/day, DW4): −0.5
CREATININE (RATE BLANKED), Mean (SD) (0.10 mg/kg/day, DW4): 81.0 (21.62)
GFR Change from Baseline, Mean (SD) (0.10 mg/kg/day, DW4): 3.6 (11.81)
GFR Change from Baseline, Median (0.10 mg/kg/day, DW4): 3.1
GFR, Mean (SD) (0.10 mg/kg/day, DW4): 80.3 (25.98)
GFR, Median (0.10 mg/kg/day, DW4): 75.6
UREA NITROGEN Change from Baseline, Mean (SD) (0.10 mg/kg/day, DW4): 0.3 (1.22)
UREA NITROGEN Change from Baseline, Median (0.10 mg/kg/day, DW4): 0.2
UREA NITROGEN, Mean (SD) (0.10 mg/kg/day, DW4): 6.4 (2.19)
UREA NITROGEN, Median (0.10 mg/kg/day, DW4): 6.3
CREATININE (RATE BLANKED), Median (0.10 mg/kg/day, DW4): 83 µmol/L
CREATININE (RATE BLANKED) Change from Baseline, Mean (SD) (0.10 mg/kg/day, DW8): 1.2 (10.40)
CREATININE (RATE BLANKED) Change from Baseline, Median (0.10 mg/kg/day, DW8): 0.0
CREATININE (RATE BLANKED), Mean (SD) (0.10 mg/kg/day, DW8): 84.2 (21.41)
GFR Change from Baseline, Mean (SD) (0.10 mg/kg/day, DW8): 0.6 (10.87)
GFR Change from Baseline, Median (0.10 mg/kg/day, DW8): 0.2
GFR, Mean (SD) (0.10 mg/kg/day, DW8): 77.9 (25.63)
GFR, Median (0.10 mg/kg/day, DW8): 76.9
UREA NITROGEN Change from Baseline, Mean (SD) (0.10 mg/kg/day, DW8): 0.2 (1.20)
UREA NITROGEN Change from Baseline, Median (0.10 mg/kg/day, DW8): 0.1
UREA NITROGEN, Mean (SD) (0.10 mg/kg/day, DW8): 6.4 (2.00)
UREA NITROGEN, Median (0.10 mg/kg/day, DW8): 6.4
CREATININE (RATE BLANKED), Median (0.10 mg/kg/day, DW8): 86 µmol/L
CREATININE (RATE BLANKED) Change from Baseline, Mean (SD) (0.10 mg/kg/day, DW12): 2.8 (12.77)
CREATININE (RATE BLANKED) Change from Baseline, Median (0.10 mg/kg/day, DW12): 6.5
CREATININE (RATE BLANKED), Mean (SD) (0.10 mg/kg/day, DW12): 86.4 (25.37)
GFR Change from Baseline, Mean (SD) (0.10 mg/kg/day, DW12): 0.2 (15.54)
GFR Change from Baseline, Median (0.10 mg/kg/day, DW12): −0.5
GFR, Mean (SD) (0.10 mg/kg/day, DW12): 77.3 (25.57)
GFR, Median (0.10 mg/kg/day, DW12): 68.7
UREA NITROGEN Change from Baseline, Mean (SD) (0.10 mg/kg/day, DW12): 0.1 (1.47)
UREA NITROGEN Change from Baseline, Median (0.10 mg/kg/day, DW12): 0.0
UREA NITROGEN, Mean (SD) (0.10 mg/kg/day, DW12): 6.3 (2.08)
UREA NITROGEN, Median (0.10 mg/kg/day, DW12): 5.9
CREATININE (RATE BLANKED), Median (0.10 mg/kg/day, DW12): 84.5 µmol/L
CREATININE (RATE BLANKED) Change from Baseline, Mean (SD) (0.10 mg/kg/day, DW16): 0.6 (11.86)
CREATININE (RATE BLANKED) Change from Baseline, Median (0.10 mg/kg/day, DW16): 0.0
CREATININE (RATE BLANKED), Mean (SD) (0.10 mg/kg/day, DW16): 84.2 (21.85)
GFR Change from Baseline, Mean (SD) (0.10 mg/kg/day, DW16): 1.1 (13.73)
GFR Change from Baseline, Median (0.10 mg/kg/day, DW16): 1.1
GFR, Mean (SD) (0.10 mg/kg/day, DW16): 78.3 (23.12)
GFR, Median (0.10 mg/kg/day, DW16): 77.5
UREA NITROGEN Change from Baseline, Mean (SD) (0.10 mg/kg/day, DW16): −0.2 (1.47)
UREA NITROGEN Change from Baseline, Median (0.10 mg/kg/day, DW16): 0.0
UREA NITROGEN, Mean (SD) (0.10 mg/kg/day, DW16): 6.0 (1.86)
UREA NITROGEN, Median (0.10 mg/kg/day, DW16): 6.1
CREATININE (RATE BLANKED), Median (0.10 mg/kg/day, DW16): 87.5 µmol/L
CREATININE (RATE BLANKED) Change from Baseline, Mean (SD) (0.10 mg/kg/day, DW20): 2.6 (12.05)
CREATININE (RATE BLANKED) Change from Baseline, Median (0.10 mg/kg/day, DW20): 0.0
CREATININE (RATE BLANKED), Mean (SD) (0.10 mg/kg/day, DW20): 86.6 (20.44)
GFR Change from Baseline, Mean (SD) (0.10 mg/kg/day, DW20): −0.6 (16.16)
GFR Change from Baseline, Median (0.10 mg/kg/day, DW20): 1.5
GFR, Mean (SD) (0.10 mg/kg/day, DW20): 77.3 (26.45)
